Columns and labels:
MET = MET biochemical kinase assay; design: species or system human; concentration or dose not given beside the values
Method in brief: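 Human MET was captured from cell lysates onto ELISA plates via goat anti-rabbit Fc and rabbit polyclonal antibody to the MET cytoplasmic domain. After washing, test compounds and kinase buffer with ATP and divalent metal ions were added. Phosphotyrosine was detected with HRP-conjugated anti-phosphotyrosine antibody and TMB colorimetric read-out.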

PDGF-R = PDGF-R (Homo sapiens, UniProt P09619); experiment: PDGF-R ELISA; type: cell-based
Sequence of PDGF-R (P09619 33-1106, species assumed): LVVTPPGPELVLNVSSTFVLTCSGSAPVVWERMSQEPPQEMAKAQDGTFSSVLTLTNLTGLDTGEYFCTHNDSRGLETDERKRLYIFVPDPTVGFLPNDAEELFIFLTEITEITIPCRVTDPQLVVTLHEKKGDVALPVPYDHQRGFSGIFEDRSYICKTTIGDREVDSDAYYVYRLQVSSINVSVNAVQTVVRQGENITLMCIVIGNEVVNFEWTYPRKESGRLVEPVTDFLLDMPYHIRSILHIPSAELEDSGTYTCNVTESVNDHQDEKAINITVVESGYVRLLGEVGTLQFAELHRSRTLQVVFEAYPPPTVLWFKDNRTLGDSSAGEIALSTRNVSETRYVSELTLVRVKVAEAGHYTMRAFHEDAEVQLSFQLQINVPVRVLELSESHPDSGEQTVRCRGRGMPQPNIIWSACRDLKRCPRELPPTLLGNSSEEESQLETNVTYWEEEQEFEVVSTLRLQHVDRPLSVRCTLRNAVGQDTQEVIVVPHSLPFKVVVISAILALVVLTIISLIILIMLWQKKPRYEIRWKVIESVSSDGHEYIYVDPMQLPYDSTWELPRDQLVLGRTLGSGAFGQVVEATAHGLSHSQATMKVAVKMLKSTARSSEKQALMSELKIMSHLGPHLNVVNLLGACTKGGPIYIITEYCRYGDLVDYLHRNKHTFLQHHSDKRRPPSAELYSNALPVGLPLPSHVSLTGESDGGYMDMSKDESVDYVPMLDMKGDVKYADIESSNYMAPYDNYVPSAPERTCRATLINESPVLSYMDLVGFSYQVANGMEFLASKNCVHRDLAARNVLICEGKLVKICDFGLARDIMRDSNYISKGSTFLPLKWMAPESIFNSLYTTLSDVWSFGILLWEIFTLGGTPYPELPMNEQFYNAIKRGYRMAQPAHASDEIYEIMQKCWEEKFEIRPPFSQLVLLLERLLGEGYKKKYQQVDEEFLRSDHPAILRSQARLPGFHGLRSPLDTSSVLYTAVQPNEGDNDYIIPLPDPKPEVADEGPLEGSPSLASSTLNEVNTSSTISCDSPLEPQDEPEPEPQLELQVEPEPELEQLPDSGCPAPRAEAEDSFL
Text: A PDGF-R ELISA is described in International Patent Publication No. WO 96/40116, published December 19, 1996 by Tang et al.

EGFR = biological target: T1, EGFR (Homo sapiens, UniProt P00533); experiment: EGFR ELISA assay (in vitro kinase activity, EGFR captured from A431 cell lysate); type: biochemical; design: concentration or dose not given beside the values
T1 construct: Add 7 ug A431 cell lysate per well (EGFR source); endogenous in cells; host or cells: A431
T1 sequence (P00533 25-1210): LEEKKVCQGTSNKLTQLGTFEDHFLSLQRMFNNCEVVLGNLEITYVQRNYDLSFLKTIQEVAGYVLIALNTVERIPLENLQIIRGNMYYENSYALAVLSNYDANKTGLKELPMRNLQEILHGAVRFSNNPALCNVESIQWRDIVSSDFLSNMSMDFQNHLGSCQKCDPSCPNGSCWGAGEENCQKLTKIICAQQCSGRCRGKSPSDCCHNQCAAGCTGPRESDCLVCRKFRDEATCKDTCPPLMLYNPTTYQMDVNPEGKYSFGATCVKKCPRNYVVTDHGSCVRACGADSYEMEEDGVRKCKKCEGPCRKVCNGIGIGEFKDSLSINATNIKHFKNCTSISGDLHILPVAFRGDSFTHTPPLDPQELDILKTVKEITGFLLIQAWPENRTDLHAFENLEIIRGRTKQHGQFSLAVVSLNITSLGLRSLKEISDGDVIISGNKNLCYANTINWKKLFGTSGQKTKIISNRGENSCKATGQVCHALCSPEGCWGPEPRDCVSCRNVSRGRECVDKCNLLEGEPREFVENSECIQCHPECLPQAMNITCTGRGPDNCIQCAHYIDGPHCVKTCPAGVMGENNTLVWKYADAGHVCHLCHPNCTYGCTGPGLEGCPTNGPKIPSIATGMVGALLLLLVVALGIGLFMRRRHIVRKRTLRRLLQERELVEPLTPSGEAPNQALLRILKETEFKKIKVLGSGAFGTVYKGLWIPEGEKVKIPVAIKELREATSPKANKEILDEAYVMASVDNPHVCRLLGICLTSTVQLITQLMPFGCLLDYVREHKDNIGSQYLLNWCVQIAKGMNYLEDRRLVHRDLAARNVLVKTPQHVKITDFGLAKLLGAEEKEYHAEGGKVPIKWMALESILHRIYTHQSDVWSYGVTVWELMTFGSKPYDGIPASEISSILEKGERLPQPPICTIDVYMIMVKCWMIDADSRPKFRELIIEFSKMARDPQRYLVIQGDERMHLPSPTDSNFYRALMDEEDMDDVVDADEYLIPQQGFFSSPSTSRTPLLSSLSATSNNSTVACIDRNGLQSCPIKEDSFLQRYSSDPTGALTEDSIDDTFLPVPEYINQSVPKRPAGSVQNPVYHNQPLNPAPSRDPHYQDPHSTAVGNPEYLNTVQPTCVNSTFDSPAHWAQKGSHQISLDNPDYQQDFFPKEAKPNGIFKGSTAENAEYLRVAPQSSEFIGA
Method in brief: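 EGFR from A431 lysate was captured on anti-EGFR antibody-coated plates and preincubated with compounds for 30 min. Autophosphorylation ran 5 min with 3 uM ATP and 5 mM MnCl2 (final), stopped with 20 mM EDTA. Phosphotyrosine was detected by anti-pTyr ELISA with ABTS/H2O2, read at 410 nm.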

## O=C1Nc2ccc(I)cc2C1=Cc1cc2c(cc1Cl)OCO2 [10727/B06]
MET
  Met Kinase % Inhibition: 91.0%
PDGF-R
  PDGF Kinase %Inhibition: 6.4%
EGFR
  Biochem EGFR %Inhibition: 40.7%

## Cc1c(Br)ccc2c1C(=C1C(=O)Nc3ccccc31)C(=O)N2 [10726/C09]
MET
  Met Kinase % Inhibition: 48.5%
PDGF-R
  PDGF Kinase %Inhibition: 26.5%
EGFR
  Biochem EGFR %Inhibition: -14.3%

## CCc1cc(CC)c(C=C2C(=O)Nc3c(Br)cc(Br)cc32)[nH]1 [10727/A03]
MET
  Met Kinase % Inhibition: 40.7%
PDGF-R
  PDGF Kinase %Inhibition: -4.5%
EGFR
  Biochem EGFR %Inhibition: -19.2%

## Cc1cc(C=C2C(=O)Nc3ccc(S(=O)(=O)Nc4ccc(C(F)(F)F)cc4)cc32)cc(C(C)(C)C)c1O [10726/E04]
MET
  Met Kinase % Inhibition: 85.5%
PDGF-R
  PDGF Kinase %Inhibition: 12.6%
EGFR
  Biochem EGFR %Inhibition: 53.0%

## Cc1cn(C)cc1C=C1C(=O)Nc2ccc(CCCl)cc21 [10726/G06]
MET
  Met Kinase % Inhibition: 19.9%
PDGF-R
  PDGF Kinase %Inhibition: -26.6%
EGFR
  Biochem EGFR %Inhibition: -37.5%

## Cc1cc(C=C2C(=O)Nc3ccc(S(=O)(=O)N4CCOCC4)cc32)cc(C(C)(C)C)c1O [10726/F04]
MET
  Met Kinase % Inhibition: 93.5%
PDGF-R
  PDGF Kinase %Inhibition: 18.3%
EGFR
  Biochem EGFR %Inhibition: 33.4%

## O=C1Nc2ccc(S(=O)(=O)N3CCOCC3)cc2C1=Cc1ccc(Br)o1 [10726/F05]
MET
  Met Kinase % Inhibition: 51.2%
PDGF-R
  PDGF Kinase %Inhibition: -17.8%
EGFR
  Biochem EGFR %Inhibition: -26.8%

## O=C1Nc2ccc(I)cc2C1=Cc1coc2ccccc2c1=O [10727/B07]
MET
  Met Kinase % Inhibition: 83.5%
PDGF-R
  PDGF Kinase %Inhibition: 0.6%
EGFR
  Biochem EGFR %Inhibition: 46.5%

## CCN(CC)c1ccc(C=C2C(=O)Nc3ccc(Br)c(C)c32)cc1 [10727/C02]
MET
  Met Kinase % Inhibition: 73.8%
PDGF-R
  PDGF Kinase %Inhibition: -12.5%
EGFR
  Biochem EGFR %Inhibition: -28.5%

## N#Cc1ccc(C=C2C(=O)Nc3c(Br)cc(Br)cc32)cc1 [10727/A09]
MET
  Met Kinase % Inhibition: 44.2%
PDGF-R
  PDGF Kinase %Inhibition: 16.6%
EGFR
  Biochem EGFR %Inhibition: 12.7%

## CCc1ccc(C=C2C(=O)Nc3ccc(S(=O)(=O)Nc4ccc(C(F)(F)F)cc4)cc32)s1 [10726/E10]
MET
  Met Kinase % Inhibition: 41.5%
PDGF-R
  PDGF Kinase %Inhibition: 37.9%
EGFR
  Biochem EGFR %Inhibition: -9.0%

## O=C1Nc2c(Br)cc(Br)cc2C1=Cc1cc(Cl)cc(Br)c1O [10727/A04]
MET
  Met Kinase % Inhibition: 80.9%
PDGF-R
  PDGF Kinase %Inhibition: 12.3%
EGFR
  Biochem EGFR %Inhibition: 28.2%

## Cc1c(Br)ccc2c1C(=Cc1cc(Cl)cc(Br)c1O)C(=O)N2 [10727/C04]
MET
  Met Kinase % Inhibition: 81.7%
PDGF-R
  PDGF Kinase %Inhibition: 23.2%
EGFR
  Biochem EGFR %Inhibition: 27.6%

## CCc1cc(CC)c(C=C2C(=O)Nc3ccc(S(=O)(=O)NC)cc32)[nH]1 [10727/D03]
MET
  Met Kinase % Inhibition: 24.0%
PDGF-R
  PDGF Kinase %Inhibition: -3.0%
EGFR
  Biochem EGFR %Inhibition: 39.4%

## COc1cccc(C=C2C(=O)Nc3ccc(I)cc32)c1OC [10727/B11]
MET
  Met Kinase % Inhibition: 69.8%
PDGF-R
  PDGF Kinase %Inhibition: 15.9%
EGFR
  Biochem EGFR %Inhibition: 6.9%

## N#Cc1cccc(C=C2C(=O)Nc3c(Br)cc(Br)cc32)c1 [10727/A08]
MET
  Met Kinase % Inhibition: 9.7%
PDGF-R
  PDGF Kinase %Inhibition: 15.2%
EGFR
  Biochem EGFR %Inhibition: 9.7%

## Cc1c(Br)ccc2c1C(=Cc1ccc(C#N)cc1)C(=O)N2 [10727/C09]
MET
  Met Kinase % Inhibition: 37.9%
PDGF-R
  PDGF Kinase %Inhibition: 21.7%
EGFR
  Biochem EGFR %Inhibition: 16.6%

## CCN(CC)c1ccc(C=C2C(=O)Nc3ccc(S(=O)(=O)NC)cc32)cc1 [10727/D02]
MET
  Met Kinase % Inhibition: 51.6%
PDGF-R
  PDGF Kinase %Inhibition: 5.7%
EGFR
  Biochem EGFR %Inhibition: 22.6%

## COc1cccc(C=C2C(=O)Nc3c(Br)cc(Br)cc32)c1OC [10727/A11]
MET
  Met Kinase % Inhibition: 16.5%
PDGF-R
  PDGF Kinase %Inhibition: 10.8%
EGFR
  Biochem EGFR %Inhibition: 6.2%

## CNS(=O)(=O)c1ccc2c(c1)C(=Cc1ccc(Br)o1)C(=O)N2 [10726/D05]
MET
  Met Kinase % Inhibition: 51.2%
PDGF-R
  PDGF Kinase %Inhibition: 39.1%
EGFR
  Biochem EGFR %Inhibition: -8.1%

## CCc1ccc(C=C2C(=O)Nc3ccc(S(=O)(=O)N4CCOCC4)cc32)s1 [10726/F10]
MET
  Met Kinase % Inhibition: 51.4%
PDGF-R
  PDGF Kinase %Inhibition: 9.4%
EGFR
  Biochem EGFR %Inhibition: -17.4%

## CNS(=O)(=O)c1ccc2c(c1)C(=Cc1ccc(OC)cc1)C(=O)N2 [10726/D11]
MET
  Met Kinase % Inhibition: 9.6%
PDGF-R
  PDGF Kinase %Inhibition: 30.9%
EGFR
  Biochem EGFR %Inhibition: -6.3%

## CCc1ccc(C=C2C(=O)Nc3ccc(CCCl)cc32)s1 [10726/G10]
MET
  Met Kinase % Inhibition: 26.8%
PDGF-R
  PDGF Kinase %Inhibition: -7.0%
EGFR
  Biochem EGFR %Inhibition: 6.0%

## O=C1Nc2ccc(S(=O)(=O)Nc3ccc(C(F)(F)F)cc3)cc2C1=Cc1ccc(Br)o1 [10726/E05]
MET
  Met Kinase % Inhibition: 71.0%
PDGF-R
  PDGF Kinase %Inhibition: 4.3%
EGFR
  Biochem EGFR %Inhibition: 5.5%

## Cc1c(Br)ccc2c1C(=C1C(=O)Nc3ccc(F)cc31)C(=O)N2 [10726/C08]
MET
  Met Kinase % Inhibition: 46.8%
PDGF-R
  PDGF Kinase %Inhibition: 21.4%
EGFR
  Biochem EGFR %Inhibition: 7.5%

## O=C1Nc2ccc(CCCl)cc2C1=Cc1cc(O)c2c(c1O)CCCC2 [10726/G07]
MET
  Met Kinase % Inhibition: 94.8%
PDGF-R
  PDGF Kinase %Inhibition: -107.6%
EGFR
  Biochem EGFR %Inhibition: 54.4%

## Cc1c(Br)ccc2c1C(=Cc1cc3c(cc1Cl)OCO3)C(=O)N2 [10727/C06]
MET
  Met Kinase % Inhibition: 45.2%
PDGF-R
  PDGF Kinase %Inhibition: 12.3%
EGFR
  Biochem EGFR %Inhibition: 5.6%

## O=C1Nc2ccc(S(=O)(=O)N3CCOCC3)cc2C1=Cc1cc(O)c2c(c1O)CCCC2 [10726/F07]
MET
  Met Kinase % Inhibition: 96.1%
PDGF-R
  PDGF Kinase %Inhibition: -99.4%
EGFR
  Biochem EGFR %Inhibition: 76.2%

## Cc1cc(C=C2C(=O)Nc3ccc(CCCl)cc32)cc(C(C)(C)C)c1O [10726/G04]
MET
  Met Kinase % Inhibition: 72.8%
PDGF-R
  PDGF Kinase %Inhibition: 14.5%
EGFR
  Biochem EGFR %Inhibition: 60.6%

## CCc1cc(CC)c(C=C2C(=O)Nc3ccc(Br)c(C)c32)[nH]1 [10727/C03]
MET
  Met Kinase % Inhibition: 11.9%
PDGF-R
  PDGF Kinase %Inhibition: 11.5%
EGFR
  Biochem EGFR %Inhibition: 14.6%

## Cc1c(Br)ccc2c1C(=Cc1cccc(C#N)c1)C(=O)N2 [10727/C08]
MET
  Met Kinase % Inhibition: 47.8%
PDGF-R
  PDGF Kinase %Inhibition: 23.2%
EGFR
  Biochem EGFR %Inhibition: 3.6%

## CNS(=O)(=O)c1ccc2c(c1)C(=Cc1cc(O)c3c(c1O)CCCC3)C(=O)N2 [10726/D07]
MET
  Met Kinase % Inhibition: 84.6%
PDGF-R
  PDGF Kinase %Inhibition: -81.0%
EGFR
  Biochem EGFR %Inhibition: 18.5%

## COc1ccc(C=C2C(=O)Nc3ccc(S(=O)(=O)N4CCOCC4)cc32)cc1 [10726/F11]
MET
  Met Kinase % Inhibition: 57.6%
PDGF-R
  PDGF Kinase %Inhibition: 25.2%
EGFR
  Biochem EGFR %Inhibition: -16.8%

## Cc1c(Br)ccc2c1C(=Cc1cc(O)ccc1O)C(=O)N2 [10727/C10]
MET
  Met Kinase % Inhibition: 94.4%
PDGF-R
  PDGF Kinase %Inhibition: 45.7%
EGFR
  Biochem EGFR %Inhibition: 85.3%

## COc1cccc(C=C2C(=O)Nc3ccc(Br)c(C)c32)c1OC [10727/C11]
MET
  Met Kinase % Inhibition: 14.5%
PDGF-R
  PDGF Kinase %Inhibition: 22.4%
EGFR
  Biochem EGFR %Inhibition: -15.6%

## CNS(=O)(=O)c1ccc2c(c1)C(=Cc1cc(C)c(O)c(C(C)(C)C)c1)C(=O)N2 [10726/D04]
MET
  Met Kinase % Inhibition: 62.9%
PDGF-R
  PDGF Kinase %Inhibition: 34.1%
EGFR
  Biochem EGFR %Inhibition: -20.1%

## COc1ccc(C=C2C(=O)Nc3ccc(Br)c(C)c32)cc1 [10726/C11]
MET
  Met Kinase % Inhibition: 34.7%
PDGF-R
  PDGF Kinase %Inhibition: 51.1%
EGFR
  Biochem EGFR %Inhibition: 4.8%

## CCc1ccc(C=C2C(=O)Nc3ccc(S(=O)(=O)NC)cc32)s1 [10726/D10]
MET
  Met Kinase % Inhibition: 35.3%
PDGF-R
  PDGF Kinase %Inhibition: 32.2%
EGFR
  Biochem EGFR %Inhibition: -6.5%

## Cc1c(Br)ccc2c1C(=Cc1coc3ccccc3c1=O)C(=O)N2 [10727/C07]
MET
  Met Kinase % Inhibition: 36.7%
PDGF-R
  PDGF Kinase %Inhibition: 13.0%
EGFR
  Biochem EGFR %Inhibition: 8.4%

## O=C1Nc2c(Br)cc(Br)cc2C1=Cc1coc2ccccc2c1=O [10727/A07]
MET
  Met Kinase % Inhibition: 61.1%
PDGF-R
  PDGF Kinase %Inhibition: 12.3%
EGFR
  Biochem EGFR %Inhibition: -3.7%

## CCN(CC)c1ccc(C=C2C(=O)Nc3c(Br)cc(Br)cc32)cc1 [10727/A02]
MET
  Met Kinase % Inhibition: 52.0%
PDGF-R
  PDGF Kinase %Inhibition: -10.3%
EGFR
  Biochem EGFR %Inhibition: 3.2%
